In patent US6004957A, “Sulfonamide inhibitors of aspartyl protease” (Vertex Pharmaceuticals, Incorporated, priority 1998, dated 1999):

How the values were obtained:
HIV-1 protease = HIV-1 protease (Human immunodeficiency virus type 1 group M subtype B, UniProt P04585); experiment: biochemical; conditions: Table VII
From the text: We measured the inhibition constants of the compounds listed in Table VII against HIV-1 protease using the above-cited method of Pennington et al.

[1] = system: HIVIIIb in CCRM-CEM cells; experiment: Anti-viral potency in CCRM-CEM cells acutely infected with HIVIIIb (method of Meek et al.), extracellular p24 antigen; format: cell-based, HIV-1; conditions: Human immunodeficiency virus 1, HIV replication, Table VIII, read-out: IC90 Range
Method in brief: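 Compounds in DMSO were added to CCRM-CEM cells (CD4+ human T-cell lymphoma) acutely infected with HIVIIIb following Meek et al. Inhibition of viral replication was determined from extracellular p24 antigen concentration measured by enzyme immunoassay.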

Ki (HIV-1 protease) [nM]	SMILES	IC90 [1] [nM]
11	CC(C)CN(C[C@@H](O)[C@H](Cc1ccccc1)NC(=O)OC(C)(C)C)S(=O)(=O)c1cccc(F)c1 [Compound 50]	1000 to 10000
67	CC(C)CN(C[C@H](O)[C@H](Cc1ccccc1)NC(=O)[C@H](CC(N)=O)NC(=O)c1ccc2ccccc2n1)S(=O)(=O)c1cccc2nonc12 [Compound 192]	1000 to 10000
0.1	CC(C)CN(C[C@@H](O)[C@H](Cc1ccccc1)NC(=O)[C@@H](NC(=O)OCc1ccccn1)C(C)C)S(=O)(=O)c1ccc(F)cc1 [Compound 26]	101 to 1000
2	CC(C)CN(C[C@@H](O)[C@H](Cc1ccccc1)NC(=O)OCc1ccccn1)S(=O)(=O)c1ccc(F)c(F)c1 [Compound 108]	1000 to 10000
10	C=CCOC(=O)N[C@@H](Cc1ccccc1)[C@H](O)CN(CC(C)C)S(=O)(=O)c1ccc(F)c(NC(C)=O)c1 [Compound 87]	1000 to 10000
20	CC(=O)Nc1ccc(S(=O)(=O)N(CC(C)C)C[C@@H](O)[C@H](Cc2ccccc2)NC(=O)OCC2CCOC2)cc1 (stereo partly drawn) [Compound 92]	
< 0.1	O=C(N[C@@H](Cc1ccccc1)[C@H](O)CN(CC1CCCC1)S(=O)(=O)c1ccc2c(c1)OCO2)O[C@H]1CCOC1 [Compound 176]	
120	CC(C)CN(C[C@@H](O)[C@H](Cc1ccccc1)NC(=O)OC(C)(C)C)S(=O)(=O)N(C)C [Compound 68]	
0.4	CC(C)CN(C[C@@H](O)[C@H](Cc1ccccc1)NC(=O)OC1CCOC1)S(=O)(=O)c1ccc(F)cc1 (stereo partly drawn) [Compound 52, 4-Fluoro-N-((2 syn,3S)-2-hydroxy-4-phenyl-3-((R)-tetrahydrofuran-3-yloxycarbonylamino)-butyl)-N-isobutyl-benzenesulfonamide and 4-Fluoro-N-((2 syn,3S)-2-hydroxy-4-phenyl-3-((R)-tetrahydrofuran-3-yloxycarbonylamino)-butyl)-N-isobutyl-benzenesulfonamide]	101 to 1000
290	CC(C)N(C[C@@H](O)[C@H](Cc1ccccc1)NC(=O)OC(C)(C)C)S(=O)(=O)c1ccc(F)cc1 [Compound 75]	
	O=C(N[C@@H](Cc1ccccc1)[C@H](O)CN(CC1CCCC1)S(=O)(=O)c1ccccc1)O[C@H]1CCOC1 [Compound 148, N-Cyclopentylmethyl-N-((2 syn,3S)-2-hydroxy-4-phenyl-3-((S)-tetrahydrofuran-3-yloxycarbonylamino)-butyl)-benzenesulfonamide]	< 100
	COC(=O)N[C@@H](Cc1ccccc1)[C@H](O)CN(CC(C)C)S(=O)(=O)c1ccc(F)cc1 [Compound 104]	1000 to 10000
	CC(C)CN(C[C@@H](O)[C@H](Cc1ccccc1)NC(=O)O[C@H]1CCOC1)S(=O)(=O)c1ccc(O)cc1 [Compound 175]	< 100
	CC(=O)Nc1cc(S(=O)(=O)N(CC(C)C)C[C@@H](O)[C@H](Cc2ccccc2)NC(=O)[C@H](CC(N)=O)NC(=O)c2ccc3ccccc3n2)ccc1F [Compound 16, (S)-N-1-(3-((3-Acetylamino-4-fluoro-benzenesulfonyl)-isobutyl-amino)-(1S,2 syn)-1-benzyl-2-hydroxy-propyl)-2-((quinoline-2-carbonyl)-amino)-succinamide]	101 to 1000
	NC(=O)C[C@H](NC(=O)c1ccc2ccccc2n1)C(=O)N[C@@H](Cc1ccccc1)[C@H](O)CN(Cc1ccccc1)S(=O)(=O)c1cccc(S(N)(=O)=O)c1 [Compound 10, N-1-(1-(S)-Benzyl-3-(benzyl-(3-sulfamoyl-benzenesulfonyl)-amino)-2-(syn)-hydroxy-propyl)-2-((quinoline-2-carbonyl)-amino)-succinamide]	101 to 1000
	Nc1ccc(S(=O)(=O)N(CC2CCCC2)C[C@@H](O)[C@H](Cc2ccccc2)NC(=O)O[C@H]2CCOC2)cc1 [Compound 171, 4-Amino-N-cyclopentylmethyl-N-((2 syn,3S)-2-hydroxy-4-phenyl-3-((S)-tetrahydrofuran-3-yloxycarbonylamino)-butyl)-banzenesulfonamide]	< 100
	CCOC(=O)N[C@@H](Cc1ccccc1)[C@H](O)CN(CC(C)C)S(=O)(=O)c1ccc(Cl)c(Cl)c1 [Compound 119]	1000 to 10000
	C=C(C)CN(C[C@@H](O)[C@H](Cc1ccccc1)NC(=O)O[C@H]1CCOC1)S(=O)(=O)c1ccc(F)cc1 [Compound 135]	1000 to 10000
	O=C(N[C@@H](Cc1ccccc1)[C@H](O)CN(CC1CCCC1)S(=O)(=O)c1ccc(Cl)cc1)O[C@H]1CCOC1 [Compound 116, 4-Chloro-N-cyclopentylmethyl-N-((2 syn,3S)-2-hydroxy-4-phenyl-3-((S)-tetrahydrofuran-3-yloxycarbonylamino)-butyl)-benzenesulfonamide]	< 100
	CC(C)CN(C[C@@H](O)[C@H](Cc1ccccc1)NC(=O)OCc1cccnc1)S(=O)(=O)c1ccc2nonc2c1 [Compound 82]	1000 to 10000
0.1	CC(C)CN(C[C@@H](O)[C@H](Cc1ccccc1)NC(=O)[C@H](CC(N)=O)NC(=O)c1ccc2ccccc2n1)S(=O)(=O)c1ccc(-c2ccccn2)s1 [Compound 12, (S)-N-1-(1-(S)-Benzyl-2-(syn)-hydroxyl-3-(isobutyl-(5-pyridin-2-yl-thiophene-2-sulfonyl)-amino)-propyl)-2-((quinoline-2-carbonyl)-amino)-succinamide]	< 100
	O=C1N[C@H](COC(=O)N[C@@H](Cc2ccccc2)[C@H](O)CN(CC2CCCC2)S(=O)(=O)c2ccc(Cl)cc2)CO1 [Compound 139, 4Chloro-N-cyclopentylmethyl-N-(2-(syn)-hydroxy-3-((2-oxazolidon-4-(S)-yl-methyl)-oxycarbonylamino)-4-phenyl-butyl)-benzenesulfonamide]	101 to 1000
72	CC(C)CN(C[C@@H](O)[C@H](Cc1ccccc1)NC(=O)OC(C)(C)C)S(=O)(=O)c1ccc(N)c([N+](=O)[O-])c1 [Compound 62]	
2.5	CC(C)CN(C[C@@H](O)[C@H](Cc1ccccc1)NC(=O)OCC1CCOC1)S(=O)(=O)c1ccc(F)cc1 (stereo partly drawn) [Compound 97, 4-Fluoro-N-(2 syn,3S)-2-hydroxy-4-phenyl-3-((tetrahydro-furan-(R)-3-ylmethoxycarbonylamino)-butyl)-N-isobutyl-benzenesulfonamide and 4-Fluoro-N-(2 syn,3S)-2-hydroxy-4-phenyl-3-((tetrahydro-furan-(S)-3-ylmethoxycarbonylamino)-butyl)-N-isobutyl-benzenesulfonamide]	101 to 1000
	CC(=O)Nc1cccc(S(=O)(=O)N(CC(C)C)C[C@@H](O)[C@H](Cc2ccccc2)NC(=O)[C@H](CC(N)=O)NC(=O)c2ccc3ccccc3n2)c1 [Compound 19, (S)-N-1-(3-((3-Acetylamino-benzenesulfonyl)-isobutyl-amino)-(1S,2 syn)-1-benzyl-2-hydroxy-propyl)-2-((quinoline-2-carbonyl)-amino)-succinamide]	101 to 1000
